# From US6358701B1, “DNA molecules encoding Ctenocephalides felis glutamate gated chloride channels” (Merck & Co., Inc., priority 1997, dated 2002)
# Like-named read-outs stand apart in the source and are kept apart here.
# Legend:
# [1] = system: CfGluCl-1 (C. felis GluCl channel); experiment: Two microelectrode voltage clamp of Xenopus oocytes expressing CfGluCl-1; format: cell-based, Ctenocephalides felis; conditions: for ability to activate CfGluCl-1: agonists for other types of ligand-gated chloride channels
# Procedure: The full-length cDNA encoding CfGluCl-1 in plasmid vector pBluescript (Stratagene, LaJolla, Calif.) is linearized and capped cRNA transcripts are synthesized using appropriate oligonucleotide primers and the mMESSAGE mMACHINE in vitro RNA transcription kit (Ambion). Xenopus laevis oocytes were prepared and injected using standard methods as described (Arena et al., 1991, Mol. Pharmacol. 40: 368-374; Arena et al, 1992, Mol. Brain Res. 15: 339-348). Adult female Xenopus laevis were anesthetized with 0.17% tricaine methanesulfonate and the ovaries were surgically removed and placed in a dish consisting of (mM): NaCl 82.5, KCl 2, MgCl2 1, CaCl2 1.8, HEPES 5 adjusted to pH 7.5 with NaOH (OR-2). Ovarian lobes were broken open, rinsed several times, and gently shaken in OR-2 containing 0.2% collagenase (Sigma, Type IA) for 2-5 hours. When approximately 50% of the follicular layers were removed, Stage V and VI oocytes were selected and placed in media consisting of (mM): NaCl 86, KCl 2, MgCl2 1, CaCl2 1.8, HEPES 5, Na pyruvate 2.5, theophylline 0.5, gentamicin 0.1 adjusted to pH 7.5 with NaOH (ND-96) for […] before injection. For most experiments, oocytes were injected with 10 ng of cRNA in 50 nl of RNase free water. Control oocytes were injected with 50 nl of water. Oocytes were incubated for 1-5 days in ND-96 supplemented with […] gentamycin, 2.5 mM Na pyruvate and 0.5 mM theophylline before recording. Incubations and collagenase digestion were carried out at […].
# Voltage-clamp studies were conducted with the two microelectrode voltage clamp technique using a Dagan CA1 amplifier (Dagan Instruments, Minneapolis, Minn.). The current passing microelectrodes were filled with 0.7M KCl plus 1.7M K3-citrate and the voltage recording microelectrodes were filled with 1.0M KCl. The extracellular solution for most experiments was saline consisting of (mM): NaCl 96, BaCl2 3.5, MgCl2 0.5, CaCl2 0.1, HEPES 5, adjusted to pH 7.5 with NaOH. The extracellular chloride concentration was reduced in some experiments by equimolar replacement of NaCl with the sodium salt of the indicated anion. Experiments were conducted at 21-24° C. Data were acquired using the program Pulse and most analysis was performed with the companion program Pulsefit (Instrutech Instruments, Great Neck, N.Y.) or with Igor Pro (Wavemetrics, Lake Oswego, Oreg.). Data were filtered (fc, −3db) at 1 kHz, unless otherwise indicated.
# FIG. 5A and FIG. 5B show the activation of CfGluCl-1 by glutamate. […] The duration of exposure to glutamate is indicated by the solid bar at top. FIG. 5B shoes the concentration-response curve for glutamate. Peak outward current is plotted vs. glutamate concentration. The solid curve is the best fit to the equation I/Imax={1+(EC50/[glutamate])^n}^−1. […] Agonists for other types of ligand-gated chloride channels were also tested for the ability to activate
# Each curve represents the difference between the current measured with and without 10 μM glutamate. The voltage was ramped from −120 to +60 mV at 1 volt/second. Chloride concentration was reduced from 104 mM to 8.2 mM by equimolar substitution of NaCl by Na-methanesulfonate or Na-gluconate. Each current-voltage relationship was fit to a seventh order polynomial using non-linear least squares analysis and the reversal potential was taken as the x-intercept of this polynomial.
# A single [IVM-PO4] was tested on each oocyte. The ordinate is the maximal current induced by IVM-PO4 normalized by the peak current induced by 100 μM glutamate, a maximally effective concentration. The error bars indicate ±S.E.M. The holding potential was 0 mV for both sets of measurements. The filled circles represent data for CfGluCl-1.
# (1) I=Iivm,max/{1+(EC50/[IVM-PO4])^n}
# DmGluCl1 = DmGluCl1 (Drosophila melanogaster, UniProt Q94900); conditions: holding potential −80 mV; cited from earlier work
# Sequence of DmGluCl1 (Q94900 23-456 S345N): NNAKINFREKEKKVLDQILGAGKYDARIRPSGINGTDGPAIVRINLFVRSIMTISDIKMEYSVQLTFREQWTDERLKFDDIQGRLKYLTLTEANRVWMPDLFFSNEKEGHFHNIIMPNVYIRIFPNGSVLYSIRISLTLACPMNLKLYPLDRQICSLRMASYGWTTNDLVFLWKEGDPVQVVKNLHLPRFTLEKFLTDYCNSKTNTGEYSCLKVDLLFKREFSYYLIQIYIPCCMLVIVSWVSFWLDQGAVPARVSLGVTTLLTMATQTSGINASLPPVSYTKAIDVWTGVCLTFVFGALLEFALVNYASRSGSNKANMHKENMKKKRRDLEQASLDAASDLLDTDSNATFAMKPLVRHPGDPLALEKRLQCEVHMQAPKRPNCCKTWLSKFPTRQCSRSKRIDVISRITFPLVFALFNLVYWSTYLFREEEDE
molecule,measurement,setting,value
NCCCC(=O)O [GABA],ability to activate CfGluCl-1,[1],inactive
CC(=O)OCC[N+](C)(C)C [acetylcholine],ability to activate CfGluCl-1,[1],inactive
N[C@@H](CCC(=O)O)C(=O)O [glutamate],EC50,"[1]; experiment of FIG. 5B, fit to I/Imax={1+(EC50/[glutamate])^n}^−1, read-out: EC50 for activation of CfGluCl-1 (peak outward current vs. concentration)",9300 nM
NCC(=O)O [glycine],ability to activate CfGluCl-1,[1],inactive
NCCc1c[nH]cn1 [histamine],ability to activate CfGluCl-1,[1],inactive
NCc1cc(=O)[nH]o1 [muscimol],ability to activate CfGluCl-1,[1],inactive
ivermectin phosphate [IVM-PO4],increase in potency,[1]; 0 mV measurements vs. earlier −80 mV data,10 fold
same,agonist activity at the flea GluCl channel encoded by CfGluCl-1,[1]; FIGS. 7A and B,agonist
same,"Iivm,max (maximal current normalized by the peak current induced by 100 μM glutamate)",[1]; holding potential 0 mV,0.718
same,EC50,"[1]; holding potential 0 mV, fit to equation (1), read-out: EC50 for activation of CfGluCl-1",2.93 nM
same,EC50,DmGluCl1,41 nM
same,"Iivm,max on DmGluCl1",DmGluCl1,0.35
same,n (exponent of equation (1)) on DmGluCl1,DmGluCl1,1.2
